Experiments:
[1] = test system: Mycolicibacterium smegmatis; experiment: Antimycobacterial activity against Mycobacterium smegmatis MC2 155 ATCC 700084 assessed as growth inhibition at 10 uM after 5 days relative to control; format: functional; conditions: MC2 155 ATCC 700084, 120 h, read-out: GI
[2] = test system: Mycobacterium tuberculosis; experiment: Antimycobacterial activity against Mycobacterium tuberculosis H37Rv ATCC 27294 assessed as growth inhibition at 10 uM after 5 days relative to control; format: functional; conditions: H37Rv ATCC 27294, 120 h, read-out: GI

Row | Compound | inhibition of growth at 10 µM [1] | inhibition of growth at 10 µM [2]
1 | CCCCCCCCn1cc(CN2CCC(C)CC2)c2c(OC)cccc21 | 99% | 99%
2 | CCCCCCCCn1cc(CN2CCCCCC2)c2cccc(OC)c21 | 99% | 99%
3 | N#CCCCn1cc(CN2CCCCC2)c2cc(F)ccc21 | 99% | 99%
4 | CC(C)=CCC/C(C)=C/Cn1ccc2cc(F)ccc21 | 99% | 99%
5 | CCN1CCN(Cc2cn(C/C=C(\C)CCC=C(C)C)c3ccc(F)cc23)CC1 | 99% | 99%
6 | CCCCCCCCn1cc(CN2CCCCC2)c2c(OC)cccc21 | 99% | 99%
7 | CCCCCCCCn1cc(CNC2CCCCCC2)c2cc(F)ccc21 | 99% | 99%
8 | Fc1ccc2c(c1)c(CN1CCCCC1)cn2CCCc1ccccc1 | 99% | 99%
9 | O=C(Cn1cc(CN2CCCCC2)c2cc(F)ccc21)NC1CC1 | 99% | 99%
10 | CCCCn1cc(CN2CCCCC2)c2cc(F)ccc21 | 99% | 99%
11 | CCCCCCCCn1cc(CN2CCCC2)c2cc(F)ccc21 | 99% | 99%
12 | CCCCCCCCn1cc(CN2CCCCC2)c2c(F)cccc21 | 99% | 99%
13 | CCCCNC(=O)Cn1cc(CN2CCCCC2)c2cc(F)ccc21 | 99% | 99%
14 | CCCCCCCCn1cc(CN2CCCCC2)c2cccc(OC)c21 | 99% | 99%
15 | CCCCCCCCn1cc(CNCCC)c2cc(F)ccc21 | 99% | 99%
16 | CC(C)=CCC/C(C)=C/Cn1cc(CNC2CCCC2)c2cc(F)ccc21 | 99% | 99%
17 | CCCCCCCCn1cc(CNC(C)C)c2cc(F)ccc21 | 99% | 99%
18 | CC(C)=CCC/C(C)=C/Cn1cc(CN2CCCCC2)c2cccnc21 | 99% | 99%
19 | CC(C)=CCC/C(C)=C/Cn1cc(CNC23CC4CC(CC(C4)C2)C3)c2cc(F)ccc21 | 99% | 99%
20 | CCCCCCCCn1cc(CN2CCCCCC2)c2cc(F)ccc21 | 99% | 99%
21 | CCCCCCCCn1cc(CN2CCCCCC2)c2ccc(OC)cc21 | 99% | 99%
22 | CCCCCCCCn1cc(CNC23CC4CC(CC(C4)C2)C3)c2ccc(OC)cc21 | 99% | 99%
23 | CCCCCCCCn1cc(CN2CCC3(CC2)OCCO3)c2cc(OC)ccc21 | 99% | 99%
24 | CCCCCCCCn1cc(CN2CCC(C)CC2)c2cccc(OC)c21 | 99% | 99%
25 | CCCCCCCCn1cc(CNC23CC4CC(CC(C4)C2)C3)c2cc(F)ccc21 | 99% | 99%
26 | Fc1ccc2c(c1)c(CN1CCCCC1)cn2Cc1ccccc1 | 99% | 99%

Row | Compound | inhibition of growth at 10 µM [1] | inhibition of growth at 10 µM [2]
27 | CCCCCCCCn1cc(CN2CCOCC2)c2cc(F)ccc21 | 99% | 99%
28 | CCCCCCCCn1cc(CN2CCCCC2)c2ccc(F)cc21 | 99% | 99%
29 | CC(C)=CCC/C(C)=C/Cn1cc(CN2CCCCC2)c2cc(Cl)ccc21 | 99% | 99%
30 | CC(C)=CCC/C(C)=C/Cn1cc(CN2CCCCC2)c2cc(Br)ccc21 | 99% | 99%
31 | CCCCCCCCn1cc(CN(C)CCC)c2cc(F)ccc21 | 99% | 99%
32 | CCCCCCCCn1cc(CN2CCCCCC2)c2c(OC)cccc21 | 99% | 99%
33 | CC(C)=CCC/C(C)=C/Cn1cc(CN2CCN(C)CC2)c2cc(F)ccc21 | 99% | 99%
34 | CCCCCCCCn1cc(CN2CCCCC2)c2cc(OC)ccc21 | 99% | 99%
35 | CC(C)=CCC/C(C)=C/Cn1cc(CN2CCCC2)c2cc(F)ccc21 | 99% | 99%
36 | CCCCCCCCn1cc(CN2CCCCCC2)c2ccc(F)cc21 | 99% | 99%
37 | CCCCCCCCn1cc(CN2CCC(C)CC2)c2cc(F)ccc21 | 99% | 99%
38 | CCCCCCCCn1cc(CN2CCN(C)CC2)c2cc(F)ccc21 | 99% | 99%
39 | CC(C)=CCC/C(C)=C/Cn1cc(CN2CCS(=O)(=O)CC2)c2cc(F)ccc21 | 99% | 99%
40 | CCCCCCCCn1cc(CN2CCCCC2)c2cc(F)ccc21 | 99% | 99%
41 | CCCCCCCCn1cc(CN2CCC(C)CC2)c2ccc(F)cc21 | 99% | 99%
42 | CCCCCCCCn1cc(CN2CCSCC2)c2cc(F)ccc21 | 99% | 99%
43 | CCCCCCCCn1cc(CNC23CC4CC(CC(C4)C2)C3)c2cccc(OC)c21 | 99% | 99%
44 | CCN(CC)Cc1cn(C/C=C(\C)CCC=C(C)C)c2ccc(F)cc12 | 99% | 99%
45 | CCCCN(CCCC)Cc1cn(C/C=C(\C)CCC=C(C)C)c2ccc(F)cc12 | 99% | 99%
46 | CCCCCCCCn1cc(CNC23CC4CC(CC(C4)C2)C3)c2ccc(F)cc21 | 99% | 99%
47 | CCCCCCCCn1cc(CN(C)C)c2cc(F)ccc21 | 99% | 99%
48 | CCCCCCCCn1cc(CN2CCCCC2)c2cc(Br)ccc21 | 99% | 99%
49 | CCCN(CC)Cc1cn(C/C=C(\C)CCC=C(C)C)c2ccc(F)cc12 | 99% | 99%
50 | CCCCCCCCn1cc(CN2CCC3(CC2)OCCO3)c2cccc(OC)c21 | 99% | 99%
51 | CCCCCCCCn1cc(CN2CCCCC2)c2ccccc21 | 99% | 99%
52 | Fc1ccc2c(c1)c(CN1CCCCC1)cn2CCCOc1ccccc1 | 99% | 99%

Row | Compound | inhibition of growth at 10 µM [1] | inhibition of growth at 10 µM [2]
53 | CCCCCCCCn1cc(CN2CCN(CC)CC2)c2cc(F)ccc21 | 99% | 99%
54 | CCCCCCCCn1cc(CN(CCCC)CCCC)c2cc(F)ccc21 | 99% | 99%
55 | CC(C)=CCC/C(C)=C/Cn1cc(CN2CCSCC2)c2cc(F)ccc21 | 99% | 99%
56 | CC(C)=CCC/C(C)=C/Cn1cc(CN2CCOCC2)c2cc(F)ccc21 | 99% | 99%
57 | CCCCCCCCn1cc(CN2CCC3(CC2)OCCO3)c2c(OC)cccc21 | 99% | 99%
58 | CCCCCCCCn1cc(CN2CCCCC2)c2cc(Cl)ccc21 | 99% | 99%
59 | CCCCCCCCn1cc(CN2CCC(C)CC2)c2cccc(F)c21 | 99% | 99%
60 | CCCCCCCCn1cc(CN(CC)CC)c2cc(F)ccc21 | 99% | 99%
61 | CC(C)=CCC/C(C)=C/Cn1cc(CNC2CCCCCC2)c2cc(F)ccc21 | 99% | 99%
62 | CCCN(CCC)Cc1cn(C/C=C(\C)CCC=C(C)C)c2ccc(F)cc12 | 99% | 99%
63 | CCCCCCCCn1cc(CNC23CC4CC(CC(C4)C2)C3)c2cc(OC)ccc21 | 99% | 99%
64 | CC(C)=CCC/C(C)=C/Cn1cc(CN(C)C)c2cc(F)ccc21 | 99% | 99%
65 | CCCCCCCCn1cc(CNC23CC4CC(CC(C4)C2)C3)c2cccc(F)c21 | 99% | 99%
66 | CCCCCCCCn1cc(CN2CCCCCC2)c2cc(OC)ccc21 | 99% | 99%
67 | CCCCCCCCn1cc(CNC2CCCC2)c2cc(F)ccc21 | 99% | 99%
68 | CCCCCCCCn1cc(CN2CCCCC2)c2cccc(F)c21 | 99% | 99%
69 | Fc1ccc2[nH]cc(CN3CCCCC3)c2c1 | 99% | 99%
70 | CC(C)=CCC/C(C)=C/Cn1cc(CN2CCC(C)CC2)c2cc(F)ccc21 | 99% | 99%
71 | CCCCCCCCn1cc(CN2CCC3(CC2)OCCO3)c2cc(F)ccc21 | 99% | 99%
72 | COc1ccc2c(c1)c(CN1CCCCC1)cn2C/C=C(\C)CCC=C(C)C | 99% | 99%
73 | CCCCCCCCn1cc(CNC2CC2)c2cc(F)ccc21 | 99% | 99%
74 | CC(C)=CCC/C(C)=C/Cn1cc(CN2CCCCCC2)c2cc(F)ccc21 | 99% | 99%
75 | CC(C)=CCC/C(C)=C/Cn1cc(C(=O)N2CCCCC2)c2cc(F)ccc21 | 99% | 99%
76 | CCCCCCCCn1cc(CN2CCC(C)CC2)c2cc(OC)ccc21 | 99% | 99%
77 | CCCCCCCCn1cc(CNC23CC4CC(CC(C4)C2)C3)c2c(OC)cccc21 | 99% | 99%

Source: ChEMBL document CHEMBL4007488, “Amphiphilic Indole Derivatives as Antimycobacterial Agents: Structure-Activity Relationships and Membrane Targeting Properties” (J Med Chem, 2017)
